A short description of one data set: Cytotoxicity assay (MTT). The conditions noted are these: for IC50: 5 days. It counts as cell-based, human. The protocol:
(§1) Compounds 1−5 were dissolved as described in the previous section. The cytotoxicity assay was initially performed against the cell lines L929 (mouse fibroblasts), as well as KB 3.1 (human papillomavirus-related endocervical adenocarcinoma), as described previously. A detailed protocol, as well as sources of the cell lines, is given in the Supporting Information.
(§2) After incubating the cell lines with a serial dilution of the test compounds (final range: 37 to 0.6 × 10^−3 µg/mL) for five days, the cells were dyed using 3-(4,5-dimethyl-2-thiazolyl)-2,5-diphenyl-2H-tetrazolium bromide (MTT), which is only converted to its purple formazan derivative by living cells. Then, the intensity of the purple derivative in relation to cells without additive (set to 100% viability) for each concentration of a test compound was quantified. For this, the absorption at 595 nm was measured using a microplate reader to calculate the percentage of cell viability. From this, the half-maximum inhibitory concentration (IC50, in µM) was calculated.
(§3) If an inhibition of cell viability with an IC50 < 50 µM was observed, further cell lines were subjected to the test compounds: PC-3 (human prostate adenocarcinoma), SK-OV-3 (human ovary adenocarcinoma), MCF-7 (human breast adenocarcinoma), A431 (human squamous carcinoma) and A549 (human lung carcinoma).
(§4) Protocol: Cytotoxicity Assay
(§5) The ass ay w as co nducted i n 9 6-well flat-bottom mi crotiter plates using the parameters summarised i n Tabl e S 2 and as described in [S2].
(§6) Cell lines L929 and KB 3.1 were incubated at 37 °C under 10 % CO2 in Gibco™ DMEM medium (Thermo Fisher Scientific, Waltham, MA, USA) supplemented with 10 % FBS. A microtiter plate was filled with 120 µL of this suspension (50,000/mL) in each well.
(§7) Seperately, another microtiter plate was filled with 100 µL of growth medium in each well. Then, 50 µL of the test compound sol utions (1 mg/mL) were given to wells of the first column in two replicates (one compound per row). C ell s wi thout addi ti ves, Me O H, and MeOH: DMSO 9+1 were used as negative controls. Starting from the first column, 50 µL of the solutions were gradually transferred to the ne xt col umn, the conte nts thoroughl y mi xed, and 50 µ L transferred to the following column. This created a serial dilution of the test compounds r anging from 333 µg/mL to 1.9 ×10−3 µg/mL. The remai ni ng 50 µL after column twelve were discarded. From this microtiter plate, 60 µL of the sol utions from 111 µg/ mL to 1.9×10−3 µg/mL were given to the first plate containing 120 µL of the cel l suspens i ons (i.e. the hi ghest concentrati on 333 µg/mL was not used). T his resulted i n fi nal compound concent rati ons rangi ng from […]
(§8) After 5 days of incubation under the aforeme ntioned i ncubati on condi ti ons, the half maximum inhibitory concentrati ons (IC 50) were determined using a colorimetric tetrazolium dye MTT assay [S3].
(§9) For this, 20 µL of a 5 mg/mL solution of 3-( 4 ,5 -dimethyl-2-thi azo l yl)-2 ,5 -di phenyl -2H-tetrazolium bromide (MTT) w ere added to each well and incubated for two hours at 37 °C. Then, the microtiter plate was centrifuged (3,000 r p m, 5 mi n) and the supernat ant remo ved by ho l di ng the pl ate upsi de-do wn and gentle shaking. Afterwards, the wells were washed using 100 µL of phosph ate buffered saline (PBS).
(§10) The plate was again centrifuged and the supernatant removed as described before. Then, 100 µL of an isopropanol:HCl solution (1L i sopropanol+4 mL HCl 37 % w/v) were added to the wells. After i ncubati ng fo r 10 mi n at ambi ent te mperature, the a bso r pti o n of the well s at 595 nm was measured wi th an I nfi ni te ® 200 Pro microplate reader (TECAN, Männedorf, Schweiz).
(§11) The absorption values of the cells without additives were averaged and set to 100 % cell viability.
(§12) Then, t he me ans of absorption of the two compound replicates were set in relation to the blank media.
(§13) These percentage values were plotted a gainst the concentration range (37 µg/mL to 0.6×10 −3 µg/mL). […]

Data set [1] has as its system A549 (human lung carcinoma). The experiment in a line: Cytotoxicity assay (MTT). The conditions noted are these: Homo sapiens, 120 h, A549, 5 days, value in µg/mL, read-out: half-maximum inhibitory concentration (IC50). It counts as cell-based. The protocol: as §1, §2, §3, §4, §5, §6, §7, §8, §9, §10, §11, §12, §13
In data set [2] the test system is A431 (human squamous carcinoma). The experiment in a line: Cytotoxicity assay (MTT). It counts as cell-based. Conditions: Homo sapiens, A-431, 120 h, A431, 5 days, value in µg/mL, read-out: half-maximum inhibitory concentration (IC50). The protocol: as §1, §2, §3, §4, §5, §6, §7, §8, §9, §10, §11, §12, §13
For data set [3], the system named is KB 3.1 (human endocervical adenocarcinoma). The experiment in a line: Cytotoxicity assay (MTT). It counts as cell-based. Conditions: 5 days. The protocol:
as §1, §2, §4, §5, §6, §7, §8, §9, §10, §11, §12
These percentage values were plotted a gainst the concentration range (37 µg/mL to 0.6×10 −3 µg/mL).
The IC50 val ue w as read from the plot ( i n µg/mL) and the uni ts conversed to µM.
If effects were observed wi th cell lines L929 and KB 3.1 (IC50 < 50 µM), the other cell lines were tested using the same protocol.
Table S2: Cytotoxicity assay experiment parameters cell line type No. growth medium […]

The mark [4] stands for this setting: A431 human squamous carcinoma cells, A431 human squamous AC.
[5] abbreviates: A549 human lung carcinoma cells, A549 human lung carcinoma.
[6] abbreviates: MCF-7 human breast adenocarcinoma cells, MCF-7 human breast AC.
[7] abbreviates: PC-3 human prostate adenocarcinoma cells, PC-3 human prostate AC.
[8] abbreviates: SK-OV-3 human ovary adenocarcinoma cells, SK-OV-3 human ovary AC.

The values that follow come from PMC7277860, “Viridistratins A−C, Antimicrobial and Cytotoxic Benzo[j]fluoranthenes from Stromata of Annulohypoxylon viridistratum (Hypoxylaceae, Ascomycota)” (Biomolecules, 2020).

≈ marks a conversion by molar mass, not a printed value.

For the compound `Oc1cccc2c3c(ccc12)-c1ccc(O)c2c(O)ccc-3c12` [Compound 1, viridistratin A], the IC50 at 5 days in the data set “Cytotoxicity assay (MTT)” (setting [4]) is 8.7 µM; in the data set “Cytotoxicity assay (MTT)” (setting [5]) it was 20 µM; in “Cytotoxicity assay (MTT)” (setting [6]) it was 9.7 µM; in the data set “Cytotoxicity assay (MTT)” (setting [7]), 23.7 µM; in “Cytotoxicity assay (MTT)” (setting [8]), 56.7 µM.

Regarding `COc1cccc2c3c(ccc12)-c1ccc(O)c2c(O)ccc-3c12` [Compound 2, viridistratin B], the figures for the IC50 in data set [1] and in data set [2] were 0.45 µg/mL (≈ 1.43 µM) and 0.34 µg/mL (≈ 1.08 µM), respectively. Further, the IC50 at 5 days in “Cytotoxicity assay (MTT)” (setting [4]) is 1.1 µM; in the data set “Cytotoxicity assay (MTT)” (setting [5]), 1.4 µM; in “Cytotoxicity assay (MTT)” (setting [6]), 5.1 µM; in “Cytotoxicity assay (MTT)” (setting [7]) it was 9.9 µM; in “Cytotoxicity assay (MTT)” (setting [8]), 7.3 µM.

In data set [3], `COc1cccc2c3c(ccc12)-c1ccc(O)c2c(OC)ccc-3c12` [Compound 3, viridistratin C] gave an IC50 of 85.4 µM.

Turning to `O=C1C[C@H]2C(=C3CCC(=O)c4c(O)ccc2c43)c2cccc(O)c21` [Compound 4, truncatone A], the IC50 in the data set “Cytotoxicity assay (MTT)” (A431 human squamous AC) was 5.7 µM; in the data set “Cytotoxicity assay (MTT)” (A549 human lung carcinoma), 17 µM; in the data set “Cytotoxicity assay (MTT)” (MCF-7 human breast AC), 8.8 µM; in “Cytotoxicity assay (MTT)” (PC-3 human prostate AC), 44 µM; in the data set “Cytotoxicity assay (MTT)” (SK-OV-3 human ovary AC) it was 66 µM.

For the compound `O=C1CCC(=O)c2c1c(O)cc1c2-c2ccc(O)c3c(O)ccc-1c23` [Compound 5, truncatone C], the IC50 at 5 days in the data set “Cytotoxicity assay (MTT)” (setting [4]) worked out at 16.3 µM; in the data set “Cytotoxicity assay (MTT)” (setting [5]), 27.1 µM; in “Cytotoxicity assay (MTT)” (setting [6]) it was 7.8 µM; in the data set “Cytotoxicity assay (MTT)” (setting [7]), 25.6 µM; in “Cytotoxicity assay (MTT)” (setting [8]), 33.1 µM.
